Series [1] can be described thus: Cytotoxicity against human erythrocytes. It is filed as cell-based, Erythrocyte.
The test system of series [2] is Leishmania infantum. Description: Antileishmanial activity against promastigote form of Leishmania infantum assessed as inhibition of parasite growth. It is filed as functional, organism-based.
Series [3] concerns Leishmania infantum. Description: Antileishmanial activity against axenic amastigote stage of Leishmania infantum assessed as reduction in parasite growth at 6.25 to 12.5 ug/ml. It is filed as functional. Particulars: dose 6.25-12.5 µg/ml; at 6.25 to 12.5 µg/mL.
Series [4] concerns Leishmania infantum. Description: Antileishmanial activity against axenic amastigote stage of Leishmania infantum assessed as reduction in parasite growth at 0.7812 ug/ml. Type of series: functional.
Series [5] relates to Leishmania infantum. Description: Antileishmanial activity against axenic amastigote stage of Leishmania infantum assessed as reduction in parasite growth. It is filed as functional, organism-based.
The nature of series [6]: Cytotoxicity against PBMC (unknown origin).
Series [7] is described as follows: Selectivity index, ratio of CC50 for PBMC (unknown origin) to EC50 for anti-leishmanial activity against axenic amastigote stage of Leishmania infantum. Type of series: toxicity. Particulars: read-out: Ratio CC50/EC50.
Series [8] in a line: Inhibition of Leishmania donovani Topoisomerase 1.
The nature of series [9]: Inhibition of Leishmania Trypanothione reductase.

The values below come from ChEMBL document CHEMBL4823298, “In vitro anti-Leishmania activity and molecular docking of spiro-acridine compounds as potential multitarget agents against Leishmania infantum” (Bioorg Med Chem Lett, 2021).

In brackets after ≈: the same amount, converted by molar mass.

In the case of `N#CC1=CC2(c3ccccc3Nc3ccccc32)N(/N=C\c2ccc(F)cc2)C1=O`, the HC50 (commonly the concentration that lyses half of the red blood cells) in [1] was greater than 400 µg/mL. In addition, the IC50 – broadly, the concentration that inhibits the measured activity by half – with Leishmania infantum [2] worked out at 4.11 µg/mL (≈ 10.4 µM).

Turning to `N#CC1=CC2(c3ccccc3Nc3ccccc32)N(/N=C\c2ccccc2)C1=O`, in the series on Leishmania infantum [3], the “inhibition (INH)” value amounted to 65%. Also, the inhibition – broadly, the change of the read-out against control, counted positive when it falls – at 0.7812 µg/mL in the series on Leishmania infantum [4] was determined as 21.7%. Also, in the series with Leishmania infantum [5], the EC50 (usually the concentration needed to bring the measured effect to its halfway point) was 4.96 µg/mL (≈ 13.2 µM). In series [1], this compound had an HC50 greater than 400 µg/mL. Half-maximal cytotoxicity in series [6] (CC50) was put at 44.2 µg/mL (≈ 117 µM). Also, the selectivity ratio in [7] amounted to 8.9. In addition, the IC50 with Leishmania infantum [2] was determined as 2.04 µg/mL (≈ 5.42 µM).

`N#CC1=CC2(c3ccccc3Nc3ccccc32)N(/N=C\c2ccc([N+](=O)[O-])cc2)C1=O` registered an HC50 in series [1] greater than 400 µg/mL. Besides, the IC50 with Leishmania infantum [2] was determined as 5.33 µg/mL (≈ 12.7 µM).

In turn, `N#CC1=CC2(c3ccccc3Nc3ccccc32)N(/N=C\c2c(Cl)cccc2Cl)C1=O` had a concentration for 50% haemolysis (HC50) in series [1] greater than 400 µg/mL. For the same compound, the IC50 with Leishmania infantum [2] worked out at 2.63 µg/mL (≈ 5.91 µM).

As for `N#CC1=CC2(c3ccccc3Nc3ccccc32)N(/N=C\c2ccccc2[N+](=O)[O-])C1=O`, the HC50 in series [1] was greater than 400 µg/mL. The IC50 in the series on Leishmania infantum [2] is 3.78 µg/mL (≈ 8.97 µM).

Turning to `N#CC1=CC2(c3ccccc3Nc3ccccc32)N(/N=C\c2ccc(Cl)cc2Cl)C1=O`, the HC50 in [1] is greater than 400 µg/mL. Besides, in the series with Leishmania infantum [2], the concentration for half-maximal inhibition (IC50) turned out to be 3.89 µg/mL (≈ 8.74 µM).

In the case of `CN(C)c1ccc(/C=N\N2C(=O)C(C#N)=CC23c2ccccc2Nc2ccccc23)cc1`, in the series on Leishmania infantum [3], the “inhibition (INH)” value was determined as 65%. For the same compound, the inhibition at 0.7812 µg/mL in the series with Leishmania infantum [4] came to 33.2%. In the series on Leishmania infantum [5], the EC50 was determined as 0.974 µg/mL (≈ 2.32 µM). The HC50 in series [1] is greater than 400 µg/mL. The CC50 – broadly, the concentration at which the toxic effect on the cells reaches its halfway point – in series [6] is greater than 100 µg/mL. For the same compound, the selectivity ratio in series [7] was greater than 103. Besides, in the series on Leishmania infantum [2], the IC50 stood at 1.11 µg/mL (≈ 2.64 µM).

Turning to `N#CC1=CC2(c3ccccc3Nc3ccccc32)N(/N=C\c2ccc(Cl)cc2)C1=O`, the HC50 in [1] was greater than 400 µg/mL. Moreover, in the series with Leishmania infantum [2], the IC50 turned out to be 5.68 µg/mL (≈ 13.8 µM).

As to `CCOc1cc(/C=N\N2C(=O)C(C#N)=CC23c2ccccc2Nc2ccccc23)ccc1O`, the HC50 in series [1] is greater than 400 µg/mL. Besides, in the series with Leishmania infantum [2], the IC50 turned out to be 6.06 µg/mL (≈ 13.9 µM).

As to `C[C@@H]1[C@H](O)[C@@H](C)/C=C/C=C/C=C/C=C/C=C/C=C/C=C/[C@H](O[C@@H]2O[C@H](C)[C@@H](O)[C@H](N)[C@@H]2O)C[C@@H]2O[C@](O)(C[C@@H](O)C[C@@H](O)[C@H](O)CC[C@@H](O)C[C@@H](O)CC(=O)O[C@H]1C)C[C@H](O)[C@H]2C(=O)O` [AMPHOTERICIN B], the EC50 in the series with Leishmania infantum [5] was 1.6 µg/mL (≈ 1.73 µM). Further, the CC50 in [6] was determined as 7.63 µg/mL (≈ 8.26 µM). Moreover, in series [7], the selectivity ratio is 4.78. In addition, the IC50 in the series on Leishmania infantum [2] was found to be 0.9 µg/mL (≈ 0.974 µM).

On to `CC[C@@]1(O)C(=O)OCc2c1cc1n(c2=O)Cc2cc3ccccc3nc2-1` [CAMPTOTHECIN], for which, in series [8], the half-maximal effective concentration (EC50) stood at 0.7 µM.

In turn, `CN(C)CCCN1c2ccccc2CCc2ccc(Cl)cc21` [CLOMIPRAMINE] gave an IC50 in series [9] of 3.8 µM.

Regarding `OCCN1CCN(CCCN2c3ccccc3Sc3ccc(Cl)cc32)CC1` [PERPHENAZINE], the IC50 in series [9] was determined as 4.88 µM.

Regarding `CCN(CC)CCCC(C)Nc1c2ccc(Cl)cc2nc2ccc(OC)cc12` (stereo unspecified) [QUINACRINE], the IC50 in [9] turned out to be 19 µM.
